Source: patent US12247063B2, “Cell surface modification by coating with peptide amphiphiles (PAs)” (Northwestern University, priority 2020, dated 2025)
Peptide text beside a SMILES is read from it.

Legend:
[1] = Zeta potential measurement of PA nanofibers; format: physicochemical; settings: 0.1 mM PA in DPBS
Procedure: The PA solutions were prepared with the final concentration of 0.1 mM in DPBS. Each solution was transferred to folded capillary zeta cells (Malvern). The zeta potential was measured using zetasizer Nano ZSP (Malvern).

[2] = target: T1, Recombinant Human VCAM-1/CD106 Fc chimera protein (Homo sapiens, UniProt P19320); assay: Biolayer interferometry (BLI) binding to VCAM-1 protein; settings: all concentrations of PA investigated (0.1 mM-100 nM)
T1 construct: Fc (immunoglobulin Fc fusion partner); His tag (inferred from capture on anti-penta-His sensor); purchased R&D Systems
T1 sequence (P19320 with tags, fused parts or gaps limits assumed): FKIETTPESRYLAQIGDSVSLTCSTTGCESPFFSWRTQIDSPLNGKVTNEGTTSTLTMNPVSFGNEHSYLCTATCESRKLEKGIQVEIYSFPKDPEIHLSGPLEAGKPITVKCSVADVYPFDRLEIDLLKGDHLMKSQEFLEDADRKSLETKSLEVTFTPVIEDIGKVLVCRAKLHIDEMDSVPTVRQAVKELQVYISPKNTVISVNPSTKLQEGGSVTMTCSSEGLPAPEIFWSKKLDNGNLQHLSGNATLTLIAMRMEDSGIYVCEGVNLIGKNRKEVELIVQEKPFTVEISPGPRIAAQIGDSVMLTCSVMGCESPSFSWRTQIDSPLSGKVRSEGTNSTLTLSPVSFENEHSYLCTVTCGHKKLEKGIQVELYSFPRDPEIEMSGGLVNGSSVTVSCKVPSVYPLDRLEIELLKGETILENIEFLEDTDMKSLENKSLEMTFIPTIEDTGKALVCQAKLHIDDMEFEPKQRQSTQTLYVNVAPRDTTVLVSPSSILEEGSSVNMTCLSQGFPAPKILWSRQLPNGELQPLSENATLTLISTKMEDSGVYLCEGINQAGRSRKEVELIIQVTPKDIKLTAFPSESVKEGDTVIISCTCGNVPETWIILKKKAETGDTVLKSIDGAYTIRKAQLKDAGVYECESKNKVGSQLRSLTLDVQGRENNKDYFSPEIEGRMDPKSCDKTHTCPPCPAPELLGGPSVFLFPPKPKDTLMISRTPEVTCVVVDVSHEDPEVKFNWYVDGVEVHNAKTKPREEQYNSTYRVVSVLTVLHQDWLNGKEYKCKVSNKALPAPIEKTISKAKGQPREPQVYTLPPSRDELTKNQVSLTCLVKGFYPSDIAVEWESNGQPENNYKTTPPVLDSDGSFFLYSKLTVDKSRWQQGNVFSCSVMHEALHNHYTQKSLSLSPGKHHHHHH
Procedure: The PA solution of each PA were prepared with the concentration 1 mM after annealing and serial dilutions were made for 100, 10, 1 μM, 100, 10, 1 nM solutions using DPBS. Recombinant Human VCAM-1/CD106 Fc chimera protein (R&D Systems) was purchased and the stock solution of 100 μg/mL was prepared according to the manufacturer's instructions and stored in −80° C. until use. For measurement, the protein solution was diluted to […]. The binding responses were measured and recorded by BLItz Bio-Layer Interferometer in Keck Biophysics Facility, Chicago campus, Northwestern University. The biosensor utilized for this study was Anti-Penta-HIS Biosensors (ForteBio). The measuring protocol is as follows: 30 seconds of initial baseline measurement, 600 seconds of protein (VCAM-1) immobilization, 30 seconds of base line measurement, 300 seconds of association measurement, 300 seconds of dissociation measurement. The dissociation constant was calculated by BLItz Pro Software.

[3] = test system: human regulatory T (hTreg) cells; assay: PA nanofiber coating of human regulatory T cells (flow cytometry, confocal); format: cell-based
Procedure: To isolate the Treg cells, the apheresis product collected from peripheral blood was suspended in a de-clumping buffer (Miltenyi PBS/EDTA Buffer, 25% Human Serum Albumin (HSA), MgCl2, and Pulmozyme). Using CliniMACS Plus and GMP grade reagents, the CD8 and CD19 depletion and CD25+ enrichment was carried out (Miltenyi). The isolated Tregs were stimulated/expanded with Exp-Act® beads at a 4:1 (bead:cell) ratio in a TexMACS medium supplemented with 5% heat-inactivated AB serum, 1,000 IU/ml IL-2, 100 ng/ml Sirolimus (SRL: Rapamycin; Sigma Aldrich) and 1 μg/ml TGF-β (Miltenyi Biotec). The cells were then restimulated with Exp-Act® beads, at a ratio of 1:1 beads on Day 7 and 14. Further, the expanded Tregs were harvested on Day 21 and Exp-Act beads were removed on the CliniMACS Plus instrument for the nanofiber coating experiment and evaluation. Peripheral blood samples were obtained under a protocol following written informed consent approved and supervised by a Northwestern University Institutional Review Board.
(§1) The cells for PA nanofiber coating should be prepared as a dispersion in buffer (DPBS; Invitrogen). The adherent cells such as 3T3 and C2C12 cells were dissociated using Trypsin (0.25%, Invitrogen). The cells were centrifuged down and washed using buffers to be prepared in DPBS (5×10^5 cells/15 μL/tube). Non-adherent cells such as CCRF-CEM cells or human regulatory T cells were simply washed by buffers to remove serum or other proteins which potentially interact with the PA molecules to get concentrated cell dispersion.
(§2) The 15 μL of concentrated cell dispersion in DPBS was mixed with 10 μL of PA solution in 500 μL-tube at RT. Unless otherwise noted, the incubation time for backbone PAs and VCAMb PA is 5 minutes and 1 minute, respectively. After incubation the cell and PA mixture was transferred to a 15 mL-conical tube with 2 mL of DPBS and centrifuged down by 1,000 g for 10 minutes. The supernatant was aspirated leaving 300 μL of buffers with the cell pellet. For backbone PA, the washing step was repeated for 3 times. For further characterizations, the pellets were dissociated in 100 μL DPBS.
(§3) All cells were stained by Calcein AM (Life Technologies) and Hoechst 33342 (Life Technologies) according to manufacturer's instructions for imaging and the flow cytometry analysis. For confocal fluorescence imaging and imaging with z-stacks, Nikon X1 Spinning Disk Confocal microscope in Center for Advanced Microscopy/Nikon Imaging Center (CAM), Northwestern University was utilized. […]
(§4) In order to quantify the coating efficiency, mean fluorescence intensity (MFI) and the viability of the cells, LSR Fortessa and Diva software (BD Biosciences) was utilized. […] The viability was calculated by dividing the number of Calcein-AM+ (living cells) by the total number of cells.

[4] = Viability of PA-coated hTreg cells (Calcein AM, flow cytometry); format: cell-based, human; settings: human, human regulatory T (hTreg) cells
Procedure: as §2
(§5) All cells were stained by Calcein AM (Life Technologies) and Hoechst 33342 (Life Technologies) according to manufacturer's instructions for imaging and the flow cytometry analysis. For confocal fluorescence imaging and imaging with z-stacks, Nikon X1 Spinning Disk Confocal microscope in Center for Advanced Microscopy/Nikon Imaging Center (CAM), Northwestern University was utilized. For 3D reconstruction of z-stacks of confocal images, IMARIS software (Oxford Instruments) in the same center was utilized.
(§6) In order to quantify the coating efficiency, mean fluorescence intensity (MFI) and the viability of the cells, LSR Fortessa and Diva software (BD Biosciences) was utilized. The coating efficiency was obtained from calculating the number of TAMRA+ cells divided by the total number of cells (Hoechst+ cells). The MFI value was obtained from living cells. The viability was calculated by dividing the number of Calcein-AM+ (living cells) by the total number of cells.

[5] = test system: primary murine splenocytes; assay: Coating of murine primary splenocytes (confocal, flow cytometry); format: cell-based
Source text: (§7) To further investigate the coating efficiency of the targeting PAs, murine primary splenocytes were isolated, coated with TAMRA-labeled ICAM-1 targeting PA, and visualized using confocal microscopy. […] Flow cytometry was subsequently performed to compare coating efficiency of ICAM-1 and VCAM-1 targeting PAs. […] This can be visualized through both light microscopy (top) and processed images highlighting bound cell edges (bottom).

ICAM surface = ICAM surface (Homo sapiens, UniProt P05362); assay: Microfluidic flow retention of coated lymphocytes on protein surface; format: cell-based
Chain of ICAM surface (P05362 28-532): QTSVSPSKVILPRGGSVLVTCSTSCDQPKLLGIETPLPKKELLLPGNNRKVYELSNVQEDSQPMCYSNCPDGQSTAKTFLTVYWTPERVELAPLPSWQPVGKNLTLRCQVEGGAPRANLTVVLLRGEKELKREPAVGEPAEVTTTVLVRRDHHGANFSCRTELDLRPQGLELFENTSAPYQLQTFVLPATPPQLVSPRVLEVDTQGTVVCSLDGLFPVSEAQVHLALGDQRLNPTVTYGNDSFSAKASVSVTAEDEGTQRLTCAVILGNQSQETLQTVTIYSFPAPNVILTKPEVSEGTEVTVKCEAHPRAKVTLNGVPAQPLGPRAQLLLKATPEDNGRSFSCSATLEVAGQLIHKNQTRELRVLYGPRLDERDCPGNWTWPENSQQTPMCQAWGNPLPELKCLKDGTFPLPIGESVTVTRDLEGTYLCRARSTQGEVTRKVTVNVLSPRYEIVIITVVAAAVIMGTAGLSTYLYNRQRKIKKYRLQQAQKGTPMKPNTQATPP
Source text: as §7

[6] = test system: human regulatory T (hTreg) cells; assay: Viability of PA-coated hTreg cells (Calcein AM, flow cytometry); format: cell-based; settings: 500 μM coating solution
Procedure: as §2, §5, §6

CCRF-CEM cells = assay: PA nanofiber coating of CCRF-CEM model cells (confocal microscopy, flow cytometry); format: cell-based; settings: annealed nanofibers with 1 mol % TAMRA-PA
Procedure: as §1
The 15 μL of concentrated cell dispersion in DPBS was mixed with 10 μL of PA solution in 500 μL-tube at RT. […]
as §3, §4

VCAM-1 = target: T2, VCAM-1 (Homo sapiens, UniProt P19320); settings: free peptide, SPR, measured from another group; cited from earlier work
T2 sequence (P19320 25-739): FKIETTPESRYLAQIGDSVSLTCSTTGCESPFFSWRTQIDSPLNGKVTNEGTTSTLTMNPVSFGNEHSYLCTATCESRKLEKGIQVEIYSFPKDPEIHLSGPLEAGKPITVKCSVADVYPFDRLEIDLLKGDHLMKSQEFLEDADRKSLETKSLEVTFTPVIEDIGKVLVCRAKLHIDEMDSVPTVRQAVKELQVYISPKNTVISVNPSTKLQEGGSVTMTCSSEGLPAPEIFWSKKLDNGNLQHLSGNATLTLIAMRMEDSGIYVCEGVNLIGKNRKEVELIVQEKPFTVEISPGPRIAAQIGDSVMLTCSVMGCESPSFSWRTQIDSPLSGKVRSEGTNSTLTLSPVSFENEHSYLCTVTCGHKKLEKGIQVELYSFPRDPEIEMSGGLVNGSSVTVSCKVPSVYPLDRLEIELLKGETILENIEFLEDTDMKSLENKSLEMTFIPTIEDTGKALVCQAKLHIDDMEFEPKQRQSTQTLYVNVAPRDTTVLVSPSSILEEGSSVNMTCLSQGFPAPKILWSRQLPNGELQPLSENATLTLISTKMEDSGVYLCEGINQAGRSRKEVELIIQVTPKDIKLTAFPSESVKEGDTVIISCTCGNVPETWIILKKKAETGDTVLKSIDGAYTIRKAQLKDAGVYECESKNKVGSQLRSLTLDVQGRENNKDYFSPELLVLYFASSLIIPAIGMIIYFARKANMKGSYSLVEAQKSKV

## CCCCCCCCCCCCCCCC(=O)N[C@H](C(=O)N[C@H](C(=O)N[C@H](C(=O)N[C@@H](C)C(=O)N[C@@H](C)C(=O)N[C@@H](C)C(=O)N[C@@H](CCC(=O)O)C(=O)N[C@@H](CCC(=O)O)C(=O)N[C@@H](CCC(=O)O)C(=O)NCC(=O)N[C@@H](CO)C(=O)NCC(=O)N[C@H](C(=O)N[C@@H](Cc1c[nH]cn1)C(=O)N1CCC[C@H]1C(=O)N[C@@H](CCCCN)C(=O)N[C@@H](CCC(N)=O)C(=O)N[C@@H](Cc1c[nH]cn1)C(N)=O)C(C)C)C(C)C)C(C)C)C(C)C [VCAMb PA, C16-V3A3E3GSGVHPKQH (SEQ ID NO: 14)] (HELM PEPTIDE1{[CCCCCCCCCCCCCCCC(=O)[*:2]].V.V.V.A.A.A.E.E.E.G.S.G.V.H.P.K.Q.H.[am]}$$$$V2.0)
[1]
  zeta potential: 21.4±3.703 mV
[2]
  association with VCAM-1 protein in BLI: clear association
[3]; PA in the range of 125-500 μM
  coating efficiency: ≥ 95%
[3]; coated within 1 minute at room temperature
  coating efficiency: ≥ 94.5%
[3]; from coating efficiency and peak shifting
  minimal concentration of stable coating: 125 µM
[4]; 125 μM PA
  viability at 1 min, 125 µM: 85.2 ± 5.3%
[4]; 250 μM PA
  viability at 1 min, 250 µM: 82.6 ± 7.45%
[4]; 500 μM PA
  viability at 1 min, 500 µM: 82.53 ± 0.61%
[5]
  difference in coating efficiency between VCAM-1 and ICAM-1 targeting PA: little difference
ICAM surface
  non-specific interactions of coated lymphocytes with off-target protein: minimal

## CCCCCCCCCCCCCCCC(=O)N[C@H](C(=O)N[C@H](C(=O)N[C@H](C(=O)N[C@@H](C)C(=O)N[C@@H](C)C(=O)N[C@@H](C)C(=O)N[C@@H](CCC(=O)O)C(=O)N[C@@H](CCC(=O)O)C(=O)N[C@@H](CCC(=O)O)C(N)=O)C(C)C)C(C)C)C(C)C [backbone PA, C16-V3A3E3 (SEQ ID NO: 5)] (HELM PEPTIDE1{[CCCCCCCCCCCCCCCC(=O)[*:2]].V.V.V.A.A.A.E.E.E.[am]}$$$$V2.0)
[6]
  viability of coated cells: high viability

## C16-V3A3E3GSGQHPHVK (SEQ ID NO: 17) (VVVAAAEEEGSGQHPHVK; HELM PEPTIDE1{[CCCCCCCCCCCCCCCC(=O)[*:2]].V.V.V.A.A.A.E.E.E.G.S.G.Q.H.P.H.V.K.[am]}$$$$V2.0; SMILES CCCCCCCCCCCCCCCC(=O)N[C@H](C(=O)N[C@H](C(=O)N[C@H](C(=O)N[C@@H](C)C(=O)N[C@@H](C)C(=O)N[C@@H](C)C(=O)N[C@@H](CCC(=O)O)C(=O)N[C@@H](CCC(=O)O)C(=O)N[C@@H](CCC(=O)O)C(=O)NCC(=O)N[C@@H](CO)C(=O)NCC(=O)N[C@@H](CCC(N)=O)C(=O)N[C@@H](Cc1c[nH]cn1)C(=O)N1CCC[C@H]1C(=O)N[C@@H](Cc1c[nH]cn1)C(=O)N[C@H](C(=O)N[C@@H](CCCCN)C(N)=O)C(C)C)C(C)C)C(C)C)C(C)C) [VCAMb-scr PA]
[1]
  zeta potential: 6.313±0.8632 mV
[2]
  association with VCAM-1 protein in BLI: negligible binding
[3]; physiological buffer
  coating behavior on hTreg cells: the majority of the cells were not coated by the fibers

## C16-V4A2E3 (SEQ ID NO: 12) (VVVVAAEEE; HELM PEPTIDE1{[CCCCCCCCCCCCCCCC(=O)[*:2]].V.V.V.V.A.A.E.E.E.[am]}$$$$V2.0; SMILES CCCCCCCCCCCCCCCC(=O)N[C@H](C(=O)N[C@H](C(=O)N[C@H](C(=O)N[C@H](C(=O)N[C@@H](C)C(=O)N[C@@H](C)C(=O)N[C@@H](CCC(=O)O)C(=O)N[C@@H](CCC(=O)O)C(=O)N[C@@H](CCC(=O)O)C(N)=O)C(C)C)C(C)C)C(C)C)C(C)C) [backbone PA candidate with V4A2 β-sheet region]
CCRF-CEM cells
  coverage of the cell surface by nanofibers: only could partially cover the cell surface

## VHPKQHR [VHPKQHR (SEQ ID NO: 11)]
VCAM-1
  Kd: 39.6 ± 1.78 nM
